Data from patent publication US4190661A, “Pyrazolo-quinolines, compositions and pharmaceutical preparations” (Laboratoires Chauvin-Blache, priority 1977, dated 1980).
≈ marks a conversion by molar mass, not a printed value. Read-outs that look alike come from different tables or passages of the source.

How the values were obtained:
Salmonella para B = experiment: antibacterial activity in vitro, dilution in liquid medium method (MIC/MBC); format: cell-based; details: for MIC: read-out: minimum inhibiting concentration (MIC)
Protocol: (§1) The nalidixic acid solution and the solutions containing compounds of the formula (I) were prepared in distilled water with addition of sodium hydroxide.
(§2) The strains used are all obtained from the hospital where they were recently isolated from urinary infections (except Salmonella para B and Listeria which are obtained from a collection):
(§3) Different dilutions of 24 hour cultures in physiological saline were used, depending on the respective growth rate of each germ:
(§4) The test is conducted in phenol red glucose broth inoculated with 0.1 ml of the dilution of the germ studied per 3 ml of broth.
(§5) The bactericidal activity was investigated according to the dilution in liquid medium method.
(§6) After 18 hours in an oven at 37° C., the minimum inhibiting concentration (MIC) corresponding to the last tube whose pH remains unmodified was noted.
(§7) The minimum bactericidal concentration (MBC) was investigated by spreading on a dish of agar medium a dosage of material taken from the tubes which have remained clear. The MBC/24 hrs is the lowest concentration for which the survival rate is zero after a contact time of 24 hours.

Escherichia coli = experiment: as above; format: cell-based; details: for MIC: read-out: minimum inhibiting concentration (MIC); for MBC: read-out: minimum bactericidal concentration (MBC)
Protocol: as §1, §2, §3, §4, §5, §6, §7

Pseudomonas aeruginosa = experiment: as above; format: cell-based; details: read-out: minimum inhibiting concentration (MIC)
Protocol: as §1, §2, §3, §4, §5, §6, §7

Proteus mirabilis = experiment: as above; format: cell-based; details: read-out: minimum inhibiting concentration (MIC)
Protocol: as §1, §2, §3, §4, §5, §6, §7

Streptococcus foecalis = experiment: as above; format: cell-based; details: read-out: minimum inhibiting concentration (MIC)
Protocol: as §1, §2, §3, §4, §5, §6, §7

Staphylococcus aureus = experiment: as above; format: cell-based; details: read-out: minimum inhibiting concentration (MIC)
Protocol: as §1, §2, §3, §4, §5, §6, §7

Klebsiella pneumoniae = experiment: as above; format: cell-based; details: read-out: minimum inhibiting concentration (MIC)
Protocol: as §1, §2, §3, §4, §5, §6, §7

[1] = acute toxicity, graphical method according to Miller and Tainter; details: mouse, in vivo, mice
Source text: Indeed, their LD50 values in mice, as determined by the graphical method according to Miller and Tainter are as follows: […]

Citrobacter = experiment: antibacterial activity in vitro, dilution in liquid medium method (MIC/MBC); format: cell-based; details: read-out: minimum inhibiting concentration (MIC)
Protocol: as §1, §2, §3, §4, §5, §6, §7

[2] = test system: Enterobacter liquefaciens; experiment: as above; format: cell-based; details: for MIC: read-out: minimum inhibiting concentration (MIC)
Protocol: as §1, §2
Enterobacter liquefaciens
as §3, §4, §5, §6, §7

Listeria monocytogenes = experiment: as above; format: cell-based; details: for MIC: read-out: minimum inhibiting concentration (MIC); for MBC: read-out: minimum bactericidal concentration (MBC)
Protocol: as §1, §2, §3, §4, §5, §6, §7

Enterobacter cloacae = experiment: as above; format: cell-based; details: for MIC: read-out: minimum inhibiting concentration (MIC)
Protocol: as §1, §2, §3, §4, §5, §6, §7

[3] = Salmonella para B, 18 hours, 37° C.
[4] = Streptococcus foecalis, 18 hours, 37° C.

MIC (Escherichia coli; 18 hours, 37° C.) [µg/mL]	MIC (Pseudomonas aeruginosa; 18 hours, 37° C.) [µg/mL]	MIC (Proteus mirabilis; 18 hours, 37° C.) [µg/mL]	MIC (Streptococcus foecalis; [4]) [µg/mL]	MIC (Staphylococcus aureus; 18 hours, 37° C.) [µg/mL]	MIC (Klebsiella pneumoniae; 18 hours, 37° C.) [µg/mL]	Compound	other results
> 100	> 100	> 100	> 100	> 100	> 100	CCn1cc(C(=O)O)c(=O)n2nc3ccccc3c12 [I a, 3-oxo-4-carboxy-6-ethyl-pyrimido[3,2-b]indazole]	MIC (Salmonella para B; [3]): > 100 µg/mL
> 100	> 100	> 100	> 100	> 100	> 100	CCn1cc(C(=O)O)c(=O)c2ccc3[nH]ncc3c21 [I b, 1-ethyl-3-carboxy-4-oxo-pyrazolo[5,4-h]quinoline]	MIC (Salmonella para B; [3]): > 100 µg/mL
> 10	> 10	> 10	> 10	> 10	> 10	CCn1cc(C(=O)O)c(=O)c2c3cn[nH]c3ccc21 [I c, 1-Ethyl-3-carboxy-4-oxo-pyrazolo[4,5-f]quinoline]	–
–	> 10	> 10	> 10	> 10	–	CCn1cc(C(=O)O)c(=O)c2c3cnn(Cc4ccccc4)c3ccc21 [I d, 1-ethyl-3-carboxy-4-oxo-7-benzyl-pyrazolo[4,5-f]quinoline]	–
–	> 10	> 10	> 10	> 10	–	CCn1cc(C(=O)O)c(=O)c2c1ccc1cnn(C)c12 [I f, 1-ethyl-3-carboxy-4-oxo-5-methyl-pyrazolo[5,4-f]uinoline]	–
–	> 100	> 100	> 100	> 100	> 100	CCn1cc(C(=O)O)c(=O)c2c3nn(C)cc3ccc21 [I g, 1-ethyl-3-carboxy-4-oxo-6-methyl-pyrazolo[3,4-f]uinoline]	–
–	> 10	> 10	> 10	> 10	> 10	CCn1cc(C(=O)O)c(=O)c2ccc3cnn(CC)c3c21 [I h, 1,9-diethyl-3-carboxy-4-oxo-pyrazolo[4,5-h]quinoline]	–
–	–	–	–	–	–	CCn1cc(C(=O)O)c(=O)c2c3[nH]ncc3ccc21 [Ie]	LD50 ([1]; ip, intraperitoneal route): 2500 mg/kg; LD50 ([1]; oral route): 4700 mg/kg
–	–	–	–	–	–	CCn1cc(C(=O)O)c(=O)c2ccc(C)nc21 [Nalidixic acid, nalidixic acid, reference compound]	MIC ([2]; Enterobacter, 18 h): 25 µg/mL (≈ 108 µM); MBC ([2]; Enterobacter, 24 h, read-out: minimum bactericidal concentration (MBC)): 100 µg/mL (≈ 431 µM); MIC (Salmonella para B; Salmonella, 18 h): 5 µg/mL (≈ 21.5 µM); MBC (Salmonella para B; Salmonella, 24 h, read-out: minimum bactericidal concentration (MBC)): 100 µg/mL (≈ 431 µM); MIC (Listeria monocytogenes; 18 h): 5 µg/mL (≈ 21.5 µM); MBC (Listeria monocytogenes; 24 h): 100 µg/mL (≈ 431 µM); MIC (Escherichia coli; 18 h): 5 µg/mL (≈ 21.5 µM); MBC (Escherichia coli; 24 h): 100 µg/mL (≈ 431 µM); MIC (Pseudomonas aeruginosa; 18 h): > 200 µg/mL; MIC (Enterobacter cloacae; 18 h): 50 µg/mL (≈ 215 µM); MBC (Enterobacter cloacae; 24 h, read-out: minimum bactericidal concentration (MBC)): 100 µg/mL (≈ 431 µM); MIC (Proteus mirabilis; 18 h): > 200 µg/mL; MIC (Streptococcus foecalis; Streptococcus, 18 h): > 200 µg/mL; MIC (Citrobacter; 18 h): > 200 µg/mL; MIC (Staphylococcus aureus; 18 h): > 200 µg/mL; MIC (Klebsiella pneumoniae; 18 h): > 200 µg/mL

Compound	MIC (Escherichia coli; 18 hours, 37° C.) [µg/mL]	MIC (Pseudomonas aeruginosa; 18 hours, 37° C.) [µg/mL]	MIC (Proteus mirabilis; 18 hours, 37° C.) [µg/mL]	MIC (Streptococcus foecalis; [4]) [µg/mL]	MIC (Staphylococcus aureus; 18 hours, 37° C.) [µg/mL]	MIC (Klebsiella pneumoniae; 18 hours, 37° C.) [µg/mL]	other results
C=Cn1cc(C(=O)O)c(=O)c2c3[nH]ncc3ccc21 [I e', 1-Vinyl-3-carboxy-4-oxo-pyrazolo[5,4-f]quinoline]	5 (≈ 19.6 µM)	> 10	> 10	> 10	> 10	> 10	LD50 ([1]; ip, intraperitoneal route): 2800 mg/kg; LD50 ([1]; oral route): > 5000 mg/kg; MIC (Citrobacter; 18 hours, 37° C.): > 10 µg/mL
CCn1cc(C(=O)O)c(=O)c2c3[nH]ncc3ccc21 [I e]	5 (≈ 19.4 µM)	> 10	> 10	> 10	> 10	> 10	MIC ([2]; Enterobacter liquefaciens, 18 hours, 37° C.): > 10 µg/mL; MIC (Salmonella para B; [3]): > 10 µg/mL; MIC (Listeria monocytogenes; 18 hours, 37° C.): 10 µg/mL (≈ 38.9 µM); MBC (Listeria monocytogenes; contact time 24 hours): 100 µg/mL (≈ 389 µM); MBC (Escherichia coli; contact time 24 hours): 100 µg/mL (≈ 389 µM); MIC (Enterobacter cloacae; 18 hours, 37° C.): > 10 µg/mL; MIC (Citrobacter; 18 hours, 37° C.): > 10 µg/mL
